From the NIST ThermoML archive (doi:10.1007/s10765-019-2568-3)

Tests used:
[1] = molar heat capacity at constant pressure; conditions: 100 kPa, DSC
[2] = for thermal conductivity / thermal diffusivity: 100 kPa; for thermal diffusivity: Laser flash apparatus

[Fe] [iron]
Conditions	molar heat capacity at constant pressure, [1] [J/K/mol]	thermal conductivity, [2] [W/m/K]	thermal diffusivity, [2] [m2/s]
293.15 K, Crystal 4	24.96	82.5	2.22e-05
373.15 K, Crystal 4	27.53	73.4	1.92e-05
473.15 K, Crystal 4	29.54	65.5	1.58e-05
573.15 K, Crystal 4	31.38	58.2	1.31e-05
673.15 K, Crystal 4	34.23	52	1.08e-05
773.15 K, Crystal 4	37.36	46.7	8.91e-06
873.15 K, Crystal 4	41.66	41.1	7.06e-06
973.15 K, Crystal 4	48.64	36.2	5.18e-06
1073.2 K, Crystal 3	52.72	31.5	4.49e-06
1173.2 K, Crystal 3	42.22	30	5.27e-06
1273.2 K, Crystal 2	33.62	28.4	6.33e-06

Conditions	mass density [kg/m3]
[2], 293 K, 101.33 kPa, Crystal 4	7849
